These compounds were tested on Brain (assay: Biodistribution in S180 tumor-bearing KM mouse brain assessed per gram of tissue at 240 to 370 kBq, iv after 15 mins). Settings: in vivo, 0.25 h.
Type: ADME, organism-based
For CC(C)[C@H](NC(=O)c1ccc([N+](=O)[O-])cc1[18F])C(=O)O, the Drug uptake was 0.09 %ID.

The compounds below were run on Brain (assay: Biodistribution in S180 tumor-bearing KM mouse brain assessed per gram of tissue at 240 to 370 kBq, iv after 5 mins). Settings: in vivo.
Type: ADME, organism-based
In the case of CC(C)[C@H](NC(=O)c1ccc([N+](=O)[O-])cc1[18F])C(=O)O, the Drug uptake is reported as 0.15 %ID.

These compounds were tested on Spleen (assay: Biodistribution in S180 tumor-bearing KM mouse spleen assessed per gram of tissue at 240 to 370 kBq, iv after 60 mins). Settings: in vivo, 1 h.
Type: ADME, organism-based
Work on CC(C)[C@H](NC(=O)c1ccc([N+](=O)[O-])cc1[18F])C(=O)O yielded a Drug uptake of 0.24 %ID.

The compounds below were run on Spleen (assay: Biodistribution in S180 tumor-bearing KM mouse spleen assessed per gram of tissue at 240 to 370 kBq, iv after 15 mins). Settings: in vivo, 0.25 h.
Type: ADME, organism-based
With CC(C)[C@H](NC(=O)c1ccc([N+](=O)[O-])cc1[18F])C(=O)O the Drug uptake was 0.6 %ID.

What follows are compounds tested on Spleen (assay: Biodistribution in S180 tumor-bearing KM mouse spleen assessed per gram of tissue at 240 to 370 kBq, iv after 5 mins). Settings: in vivo.
Type: ADME, organism-based
CC(C)[C@H](NC(=O)c1ccc([N+](=O)[O-])cc1[18F])C(=O)O showed a Drug uptake of 1.04 %ID.

The compounds below were run on Muscle tissue (assay: Biodistribution in S180 tumor-bearing KM mouse muscle assessed per gram of tissue at 240 to 370 kBq, iv after 120 mins). Settings: in vivo, 2 h.
Type: ADME, organism-based
For CC(C)[C@H](NC(=O)c1ccc([N+](=O)[O-])cc1[18F])C(=O)O, the Drug uptake was 0.12 %ID.

What follows are compounds tested on Muscle tissue (assay: Biodistribution in S180 tumor-bearing KM mouse muscle assessed per gram of tissue at 240 to 370 kBq, iv after 60 mins). Settings: in vivo, 1 h.
Type: ADME, organism-based
CC(C)[C@H](NC(=O)c1ccc([N+](=O)[O-])cc1[18F])C(=O)O showed a Drug uptake of 0.15 %ID.

These compounds were tested on Muscle tissue (assay: Biodistribution in S180 tumor-bearing KM mouse muscle assessed per gram of tissue at 240 to 370 kBq, iv after 15 mins). Settings: in vivo, 0.25 h.
Type: ADME, organism-based
With CC(C)[C@H](NC(=O)c1ccc([N+](=O)[O-])cc1[18F])C(=O)O the Drug uptake was 0.47 %ID.

What follows are compounds tested on Muscle tissue (assay: Biodistribution in S180 tumor-bearing KM mouse muscle assessed per gram of tissue at 240 to 370 kBq, iv after 5 mins). Settings: in vivo.
Type: ADME, organism-based
Work on CC(C)[C@H](NC(=O)c1ccc([N+](=O)[O-])cc1[18F])C(=O)O yielded a Drug uptake of 0.99 %ID.

Each compound was assayed on Kidney (assay: Biodistribution in S180 tumor-bearing KM mouse kidney assessed per gram of tissue at 240 to 370 kBq, iv after 120 mins). Settings: in vivo, 2 h.
Type: ADME, organism-based
CC(C)[C@H](NC(=O)c1ccc([N+](=O)[O-])cc1[18F])C(=O)O was tested, and the Drug uptake was 0.3 %ID.

These compounds were tested on Kidney (assay: Biodistribution in S180 tumor-bearing KM mouse kidney assessed per gram of tissue at 240 to 370 kBq, iv after 60 mins). Settings: in vivo, 1 h.
Type: ADME, organism-based
CC(C)[C@H](NC(=O)c1ccc([N+](=O)[O-])cc1[18F])C(=O)O gave a Drug uptake of 0.45 %ID.

Each compound was assayed on Kidney (assay: Biodistribution in S180 tumor-bearing KM mouse kidney assessed per gram of tissue at 240 to 370 kBq, iv after 30 mins). Settings: in vivo, 0.5 h.
Type: ADME, organism-based
With CC(C)[C@H](NC(=O)c1ccc([N+](=O)[O-])cc1[18F])C(=O)O the Drug uptake was 1.36 %ID.

What follows are compounds tested on Kidney (assay: Biodistribution in S180 tumor-bearing KM mouse kidney assessed per gram of tissue at 240 to 370 kBq, iv after 15 mins). Settings: in vivo, 0.25 h.
Type: ADME, organism-based
For CC(C)[C@H](NC(=O)c1ccc([N+](=O)[O-])cc1[18F])C(=O)O, the Drug uptake was 5.19 %ID.

Each compound was assayed on Lung (assay: Biodistribution in S180 tumor-bearing KM mouse lung assessed per gram of tissue at 240 to 370 kBq, iv after 120 mins). Settings: in vivo, 2 h.
Type: ADME, organism-based
CC(C)[C@H](NC(=O)c1ccc([N+](=O)[O-])cc1[18F])C(=O)O gave a Drug uptake of 0.57 %ID.

These compounds were tested on Lung (assay: Biodistribution in S180 tumor-bearing KM mouse lung assessed per gram of tissue at 240 to 370 kBq, iv after 15 mins). Settings: in vivo, 0.25 h.
Type: ADME, organism-based
Work on CC(C)[C@H](NC(=O)c1ccc([N+](=O)[O-])cc1[18F])C(=O)O yielded a Drug uptake of 2.01 %ID.

The compounds below were run on Liver (assay: Biodistribution in S180 tumor-bearing KM mouse liver assessed per gram of tissue at 240 to 370 kBq, iv after 120 mins). Settings: in vivo, 2 h.
Type: ADME, organism-based
CC(C)[C@H](NC(=O)c1ccc([N+](=O)[O-])cc1[18F])C(=O)O was tested, and the Drug uptake was 0.5 %ID.

These compounds were tested on Liver (assay: Biodistribution in S180 tumor-bearing KM mouse liver assessed per gram of tissue at 240 to 370 kBq, iv after 30 mins). Settings: in vivo, 0.5 h.
Type: ADME, organism-based
CC(C)[C@H](NC(=O)c1ccc([N+](=O)[O-])cc1[18F])C(=O)O gave a Drug uptake of 1.59 %ID.

Each compound was assayed on Liver (assay: Biodistribution in S180 tumor-bearing KM mouse liver assessed per gram of tissue weight at 240 to 370 kBq, iv after 15 mins). Settings: in vivo, 0.25 h.
Type: ADME, organism-based
CC(C)[C@H](NC(=O)c1ccc([N+](=O)[O-])cc1[18F])C(=O)O showed a Drug uptake of 3.35 %ID.

These compounds were tested on Liver (assay: Biodistribution in S180 tumor-bearing KM mouse liver assessed per gram of tissue weight at 240 to 370 kBq, iv after 5 mins). Settings: in vivo.
Type: ADME, organism-based
CC(C)[C@H](NC(=O)c1ccc([N+](=O)[O-])cc1[18F])C(=O)O was tested, and the Drug uptake was 6.54 %ID.

Each compound was assayed on Heart (assay: Biodistribution in S180 tumor-bearing KM mouse heart assessed per gram of tissue weight at 240 to 370 kBq, iv after 120 mins). Settings: in vivo, 2 h.
Type: ADME, organism-based
CC(C)[C@H](NC(=O)c1ccc([N+](=O)[O-])cc1[18F])C(=O)O showed a Drug uptake of 0.05 %ID.

Each compound was assayed on Heart (assay: Biodistribution in S180 tumor-bearing KM mouse heart assessed per gram of tissue weight at 240 to 370 kBq, iv after 60 mins). Settings: in vivo, 1 h.
Type: ADME, organism-based
CC(C)[C@H](NC(=O)c1ccc([N+](=O)[O-])cc1[18F])C(=O)O gave a Drug uptake of 0.11 %ID.

Reference: ChEMBL document CHEMBL1154040, “Synthesis and evaluation of novel F-18 labeled fluoroarylvaline derivatives: potential PET imaging agents for tumor detection” (Bioorg Med Chem Lett, 2009)
